Values quoted from earlier work in paper PMC11676667, “Pharmacokinetics of Oral Cannabinoid Δ8-Tetrahydrocannabivarin and Its Main Metabolites in Healthy Participants” (Pharmaceuticals, 2024).
Read-outs that look alike come from different tables or passages of the source.

Experiments:
[1] = oral MCT oil formulation, healthy participants; cited from earlier work
CB1 receptor = details: in vitro, cited from earlier work
[2] = oral cannabis brownie; cited from earlier work

## CCCc1cc(O)c2c(c1)OC(C)(C)[C@@H]1CC=C(C)C[C@@H]21 [Δ8-THCV, Δ8-tetrahydrocannabivarin]
[1]
  safety and tolerability: safe and well tolerated

## CCCc1cc(O)c2c(c1)OC(C)(C)[C@@H]1CCC(C)=C[C@@H]21 [Δ9-THCV, Δ9-tetrahydrocannabivarin]
CB1 receptor; at low doses
  CB1 receptor antagonist potency relative to Δ8-THCV: approximately two times more potent
CB1 receptor
  CB1 receptor antagonist potency relative to Δ8-THCV: two-fold more potent

## CCCc1cc(O)c2c(c1)OC(C)(C)[C@@H]1CCC(C(=O)O)=C[C@@H]21 [Δ9-THCV-COOH, 11-nor-9-carboxy-Δ9-THCV]
[2]
  Tmax: 3 h
